Experimental data as given in ChEMBL document CHEMBL4038299, “Nitroimidazoles: Molecular Fireworks That Combat a Broad Spectrum of Infectious Diseases” (J Med Chem, 2017).
Converted amounts (≈) assume the structure as drawn.

How the values were obtained:
Bacteroides fragilis = test: Antibacterial activity against Bacteroides fragilis ATCC 23745 after 24 hrs; format: functional; conditions: ATCC 23745, 24 h
Giardia intestinalis [1] = test: In vivo antiparasitic activity against Giardia lamblia infected in human assessed as median efficacy at 2 g administered in adults as single dose; format: functional, Giardia duodenalis
Giardia intestinalis [2] = test: In vivo antiparasitic activity against Giardia lamblia infected in human assessed as median efficacy at 30 mg/kg administered in children as single dose; format: functional, Giardia duodenalis
Trypanosoma cruzi [3] = test: Antiparasitic activity against Trypanosoma cruzi infected in human assessed as cure rate under chronic condition; format: functional
Trypanosoma cruzi [4] = test: Antiparasitic activity against Trypanosoma cruzi infected in human assessed as cure rate under acute condition; format: functional
Leishmania donovani [5] = test: Antileishmanial activity against Leishmania donovani LV9 amastigotes infected in mouse peritoneal macrophages after 72 hrs; format: functional; conditions: LV9, 72 h
Leishmania donovani [6] = test: Antileishmanial activity against Leishmania donovani LV9 amastigotes infected in po dosed BALB/c mouse assessed as reduction in parasite burden dosed on day 7 post-infection administered bid for 5 to 10 days; format: functional
[7] = Drug excretion in po dosed human feces; format: ADME, organism-based; conditions: in vivo
Clostridioides difficile = test: Antibacterial activity against Clostridium difficile; format: functional
Helicobacter pylori [8] = test: Antibacterial activity against susceptible Helicobacter pylori; format: functional
Helicobacter pylori [9] = test: Antibacterial activity against Helicobacter pylori after 72 hrs by E-test; format: functional
Giardia intestinalis [10] = test: In vivo antiparasitic activity against Giardia lamblia infected in human at 250 mg administered 2 to 3 times per day daily for 5 to 10 days; format: functional, Giardia duodenalis
[11] = Drug excretion in po dosed human watery feces; format: ADME, organism-based; conditions: in vivo
Trichomonas vaginalis [12] = test: Antiparasitic activity against Trichomonas vaginalis BRIS/92/STDL/B7268 clinical isolate after 48 hrs under anaerobic condition; format: functional
Entamoeba histolytica = test: Antiparasitic activity against Entamoeba histolytica clinical isolate after 24 hrs under anaerobic cinditions; format: functional
Trichomonas vaginalis [13] = test: Antiparasitic activity against Trichomonas vaginalis clinical isolate after 48 hrs under aerobic conditions by inverted phase contrast microscopic analysis; format: functional
Giardia intestinalis [14] = test: In vivo antiparasitic activity against Giardia lamblia infected in human at 2000 to 2400 mg administered as single dose; format: functional, Giardia duodenalis
Helicobacter pylori [15] = test: Antibacterial activity against resistant Helicobacter pylori; format: functional
Leishmania donovani [16] = test: Antileishmanial activity against Leishmania donovani HU3 infected in po dosed BALB/c mouse administered for 5 consecutive days; format: functional
Leishmania donovani [17] = test: Antileishmanial activity against Leishmania donovani LV9 promastigotes after 72 hrs by resazurin-based fluorescence assay; format: functional; conditions: LV9, 72 h
Leishmania donovani [18] = test: Antileishmanial activity against Leishmania donovani LV9 amastigotes infected in BALB/c mouse peritoneal macrophages after 72 hrs by resazurin-based fluorescence assay; format: functional; conditions: LV9, 72 h
[19] = test system: Mycobacterium tuberculosis; test: Antimycobacterial activity against Mycobacterium tuberculosis; format: functional
[20] = Half life in plasma (unknown origin); format: ADME, cell-free
Helicobacter pylori [21] = test: In vivo antibacterial activity against Helicobacter pylori infected in human administered bid for 7 days measured after 30 days post start of the treatment by endoscopic analysis; format: functional
Leishmania donovani [22] = test: Antileishmanial activity against Leishmania donovani LV9 amastigotes infected in BALB/c mouse assessed as reduction in parasite burden at 200 mg/kg, po administered qd for 5 days; format: functional; conditions: 120 h

Cc1ncc([N+](=O)[O-])n1CC(C)O (centres undefined) [SECNIDAZOLE]
MIC (Bacteroides fragilis): 0.8 to 3.7 µM (≈ 0.148 to 0.685 µg/mL) | Efficacy (Giardia intestinalis [1]): 80 - 100% | Efficacy (Giardia intestinalis [2]): 80 - 100%

O=C(Cn1ccnc1[N+](=O)[O-])NCc1ccccc1 [BENZNIDAZOLE]
Activity (Trypanosoma cruzi [3]): 8% | Activity (Trypanosoma cruzi [4]): 76%

C[C@]1(COc2ccc(N3CCC(Oc4ccc(OC(F)(F)F)cc4)CC3)cc2)Cn2cc([N+](=O)[O-])nc2O1 [DELAMANID]
EC50 (Leishmania donovani [5]): 87 nM | ED50 (Leishmania donovani [6]): 7.3 mg/kg | ED90 (Leishmania donovani [6]): 21.5 mg/kg

Cc1ncc([N+](=O)[O-])n1CCO [METRONIDAZOLE]
Drug excretion [7]: 1.2 µg/g | MIC90 (Clostridioides difficile): 0.2 to 2 µg/mL (≈ 1.17 to 11.7 µM) | MIC (Helicobacter pylori [8]): 0.25 to 2 µg/mL (≈ 1.46 to 11.7 µM) | MIC (Helicobacter pylori [9]): ≥ 256 µg/mL | Efficacy (Giardia intestinalis [10]): 88% | Drug excretion [11]: 9.3 µg/g | MLC (Trichomonas vaginalis [12]): 4.25 µg/mL (≈ 24.8 µM) | MIC (Entamoeba histolytica): 12.5 to 25 µM (≈ 2.14 to 4.28 µg/mL) | MLC (Trichomonas vaginalis [13]): 2618 µM (≈ 448 µg/mL) | Efficacy (Giardia intestinalis [14]): 48% | MIC (Helicobacter pylori [15]): > 8 µg/mL

Cc1ncc([N+](=O)[O-])n1CC(O)CCl (centres undefined) [ORNIDAZOLE]
MIC (Bacteroides fragilis): 0.8 to 3.7 µM (≈ 0.176 to 0.813 µg/mL) | Efficacy (Giardia intestinalis [1]): 92 - 100%

C[C@]1(COc2ccc(OC(F)(F)F)cc2)Cn2cc([N+](=O)[O-])nc2O1
ED90 (Leishmania donovani [16]): 3.7 mg/kg

O=[N+]([O-])c1cn2c(n1)OC[C@H](OCc1ccc(OC(F)(F)F)cc1)C2
EC50 (Leishmania donovani [17]): 160 nM | EC50 (Leishmania donovani [18]): 930 nM | MIC [19]: > 100 µM

CCCCCCCCCCCCCCCCOP(=O)([O-])OCC[N+](C)(C)C [MILTEFOSINE]
EC50 (Leishmania donovani [5]): 3300 nM

Cc1ncc([N+](=O)[O-])n1CCc1ccncc1 [PANIDAZOLE]
MIC (Bacteroides fragilis): 0.8 to 3.7 µM (≈ 0.186 to 0.859 µg/mL)

CCS(=O)(=O)CCn1c([N+](=O)[O-])cnc1C [TINIDAZOLE]
MIC (Bacteroides fragilis): 0.8 to 3.7 µM (≈ 0.198 to 0.915 µg/mL) | Efficacy (Giardia intestinalis [1]): 92% | half-life [20]: 12 to 14 h | MLC (Trichomonas vaginalis [13]): 1015 µM (≈ 251 µg/mL) | Activity (Helicobacter pylori [21]): >90%

CSc1ccc(OCc2ncc([N+](=O)[O-])n2C)cc1 [FEXINIDAZOLE]
inhibition in vivo at 200 mg/kg (Leishmania donovani [22]): 98%

Cn1c([N+](=O)[O-])cnc1COc1ccc(S(C)(=O)=O)cc1 [FEXINIDAZOLE SULFONE]
EC50 (Leishmania donovani [5]): 5300 nM
